What was measured:
[1] = Metabolic stability in mouse liver microsomes; type: in vitro ADME; settings: mouse liver microsomes 0.5 mg/mL, NADPH, compound 5 μM, 60 min
Procedure: (§1) The metabolic stability was evaluated using mouse liver microsomes. For the cytochrome P450 (CYP)-mediated metabolism, the reaction was carried out with 100 mM potassium phosphate buffer, pH 7.4, in the presence of NADPH regenerating system (1.3 mM NADPH, 3.3 mM glucose 6-phosphate, 3.3 mM MgCl2, 0.4 U/mL glucose-6-phosphate dehydrogenase, 50 μM sodium citrate). Reactions, in triplicate, were initiated by addition of the liver microsomes to the incubation mixture (compound final concentration was 5 μM; 0.5 mg/mL microsomes). After 60 min of incubation, aliquots of the mixture were removed and the reaction quenched by addition of three times the volume of ice-cold acetonitrile spiked with the internal standard. Compound disappearance was monitored over time using a liquid chromatography and tandem mass spectrometry (LC/MS/MS) method.

[2] = In vivo oral pharmacokinetics in mice; settings: 100 mg/kg oral; for Tmax: male, CD-1, mouse
Procedure: Male CD-1 mice between 25 and 30 g were obtained from Harlan, and maintained on a 12-h light-dark cycle with ad libitum access to food and water. Three animals were used per time-point for each treatment group. Compound 7a was dissolved in 5% dimethyl acetamide, 10% Tween80, 10% Cremophor EL, 25% PEG400, and 50% water, and administered to male mice as a single oral dose by oral gavage of 100 mg/kg. The mice were sacrificed at various time points post-drug administration. Animals were euthanized with CO2, and blood samples were collected in heparinized microtubes by cardiac puncture. Brain and spinal cord tissues were dissected and immediately flash frozen (−80° C.). Blood samples were spun at 2,000×g for 15 min, plasma was removed and stored at −80° C. until LC-MS analysis. Prior to extraction, frozen samples were thawed on ice. The calibration curves were developed using plasma and brain from naïve animals as a matrix. Plasma samples (50 μL), were processed using a single liquid extraction method by addition of 300 μL of acetonitrile as with internal standard (losartan: 0.5 μM), followed by vortex mixing for 30 sec and then centrifugation at 10,000×g for 10 min at 4° C. Fifty microliter of the supernatant is diluted with 50 μL of water and transferred to 250 μL polypropylene autosampler vials sealed with a Teflon cap. For brain and spinal cord tissue analysis, samples were weighed in the range of (80-100 mg) to which 2-volumes of acetonitrile as with internal standard (losartan: 0.5 μM) was added and homogenized for extraction of the analyte. Samples were vortex mixed for 1 min and centrifuged as above. A 20 μL aliquot of supernatant was diluted with 20 μL of water and transferred to 250 μL polypropylene autosampler vials sealed with a Teflon cap. A volume of 3 μL was injected onto the ultra-performance liquid chromatography (UPLC) instrument for quantitative analysis by LC-MS/MS. Samples were analyzed on a Thermo Scientific Accela UPLC system coupled to Accela open autosampler at ambient temperature with an Agilent Eclipse Plus column (100×2.1 mm i.d.) packed with a 1.8 μm C18 stationary phase. The autosampler was temperature controlled and operated at 10° C. The mobile phase used for the chromatographic separation was composed of acetonitrile/water containing 0.1% formic acid and with a flow rate of 0.4 mL/min for 4.5 min using gradient elution. The column effluent was monitored using TSQ Vantage triple-quadrupole mass-spectrometric detector, equipped with an electrospray probe set in the positive ionization mode. Samples were introduced into the ionization source through a heated nebulized probe (350° C.).

human MrgprX1 = target: T1, human MrgprX1 (Homo sapiens, UniProt Q96LB2); experiment: MrgprX1 positive allosteric modulator (PAM) calcium FLIPR assay in HEK293 cells; type: cell-based; settings: PAM activity in presence of EC20 concentration of BAM8-22; HEK293 cells stably transfected with human MrgprX1
T1 construct: expressed in transfected cells
Summary of the method: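 Fluo-4-loaded HEK293 cells stably expressing human MrgprX1 preincubated 2.5 min with compound, then challenged with BAM8-22 at its EC20; calcium read on FLIPR for 2 min. EC50 is the half-maximal response, normalised between BAM8-22 EC20 (minimum) and 250 nM BAM8-22 (maximum).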

[3] = test system: MrgprX1 mice after sciatic CCI; experiment: Chronic constrictive injury (CCI) model, heat hypersensitivity (Hargreaves test); type: in vivo; settings: 100 mg/kg oral gavage
Procedure: Compound 7a was examined for its ability to attenuate heat hypersensitivity in MrgprX1 mice after receiving sciatic CCI, according to the previously described methods (Proc Natl Acad Sci USA. 2017 Mar. 7; 114(10):E1996-E2005). Paw withdrawal latency (PWL) to noxious heat stimuli was measured with the Hargreaves test. The results are summarized in FIG. 2 (** P<0.01, *** P<0.001 vs. vehicle; ##P<0.01, ###P<0.001, ####P<0.0001 vs. pre-drug. Two-way mixed-model ANOVA with Bonferroni post hoc test. Data are expressed as mean+SD).

[4] = Metabolic stability in human liver microsomes; type: in vitro ADME
Procedure: [The procedure below names another species; the source lists this species under the same test.] as §1

[5] = intrathecal injection; cited from earlier work

T1 sequence (Q96LB2 whole entry): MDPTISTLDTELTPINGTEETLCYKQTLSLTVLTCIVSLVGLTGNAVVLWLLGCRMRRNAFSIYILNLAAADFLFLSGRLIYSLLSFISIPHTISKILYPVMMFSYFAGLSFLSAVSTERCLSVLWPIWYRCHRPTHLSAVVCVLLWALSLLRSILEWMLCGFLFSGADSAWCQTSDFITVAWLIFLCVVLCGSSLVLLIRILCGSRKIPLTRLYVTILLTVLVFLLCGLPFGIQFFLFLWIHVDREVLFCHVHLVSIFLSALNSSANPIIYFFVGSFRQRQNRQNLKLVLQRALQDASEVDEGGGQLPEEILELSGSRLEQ

% remaining after 1-h incubation, Mouse [1] [%]	AUC0-last ([2]; Brain) [µM·h]	Cmax ([2]; Brain) [µM]	Cmax ([2]; Plasma) [µM]	Cmax ([2]; Spinal cord) [µM]	Tmax ([2]; Brain) [h]	Tmax ([2]; Plasma) [h]	Tmax ([2]; Spinal cord) [h]	EC50 (human MrgprX1) [nM]	% remaining after 1-h incubation, Human [4] [%]	SMILES	ipsilateral paw withdrawal latency (PWL) to noxious heat ([3]; 1-2 hours after dosing, day 12 and day 26 post-CCI, vs pre-drug level)	contralateral paw withdrawal latency (PWL) to noxious heat ([3]; compared to pre-drug baseline or vehicle-treated group)	efficacy in preclinical models of pain [5]
25	2.37 ± 0.03	0.82 ± 0.05	39 ± 5.06	4.6 ± 0.6	1.67 ± 0.33	1.67 ± 0.33	1.17 ± 0.44	100	>95	CC(C)(C)c1sc2ncnc(Oc3ccccc3OC(F)(F)F)c2c1-c1ccc(Cl)c(Cl)c1 [Compound 7a, 6-tert-butyl-5-(3,4-dichlorophenyl)-4-(2-(trifluoromethoxy)phenoxy)thieno[2,3-d]pyrimidine]	significantly increased from pre-drug level	no significant changes	
										CCOc1ccccc1NC(=O)c1ccccc1NS(=O)(=O)C1CC1 [ML382, 2-(cyclopropanesulfonamido)-N-(2-ethoxyphenyl)benzamide]			showed efficacy

From patent US20240002395A1, “COMPOUNDS AND THEIR USE FOR TREATING NEUROPATHIC PAIN” (The Johns Hopkins University, priority 2020, published 2024)
